SMILES strings stand for the structures. Where “and” joins values, the source holds several entries; their conditions need not be identical. Equal entries are not always repeated. Where two headings read alike, the source gives them in different places.

Data set [1] concerns CYP2B6. Conditions: for CYP2B6 Indmax: mean from two experiments; for CYP2B6 % PB: relative to positive control phenobarbital, equation 2.
The subject of data set [2] is CYP1A2. The experiment in a line: CYP1A2 preinduction by omeprazole in upcyte hepatocytes. Conditions: daily 100 μmol/L omeprazole for 3 days.
Data set [3] deals with CYP3A4. The settings on record: in vivo induction value used for the RIS calibration; cited from earlier work.
Data set [4] relates to CYP3A4. Conditions: for CYP3A4 % Rif: relative to positive control rifampicin, equation 2; for CYP3A4 Ind50: column headed Ind50 in Table 5; for CYP3A4 RIS: mean of two experiments.
Data set [5] addresses CYP3A4 (Homo sapiens, UniProt P08684). The experiment in a line: in vitro. Conditions: upcyte hepatocytes, probe midazolam (5 μmol/L), percentage inhibition, CYP3A4, 1′OH-MID +1′OH-MID-G, 1 mmol/L ABT, Lab 2.
In data set [6] the target is T1, CYP1A2 (Homo sapiens, UniProt P05177).
T1 sequence (P05177 1-516): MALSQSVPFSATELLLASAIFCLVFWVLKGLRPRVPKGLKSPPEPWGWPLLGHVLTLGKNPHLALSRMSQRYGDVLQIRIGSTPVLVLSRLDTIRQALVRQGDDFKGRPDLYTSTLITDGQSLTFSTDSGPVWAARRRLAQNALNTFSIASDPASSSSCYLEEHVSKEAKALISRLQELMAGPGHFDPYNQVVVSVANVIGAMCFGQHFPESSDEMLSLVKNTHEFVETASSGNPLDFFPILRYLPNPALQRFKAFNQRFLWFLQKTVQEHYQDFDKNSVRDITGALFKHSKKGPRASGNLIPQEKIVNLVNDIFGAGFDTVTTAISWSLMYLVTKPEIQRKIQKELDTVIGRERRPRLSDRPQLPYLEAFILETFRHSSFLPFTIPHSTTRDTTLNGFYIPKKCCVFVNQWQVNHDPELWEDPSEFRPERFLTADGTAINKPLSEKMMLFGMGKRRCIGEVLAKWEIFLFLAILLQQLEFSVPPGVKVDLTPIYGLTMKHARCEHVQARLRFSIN
The experiment in a line: CYP1A2 inhibition in upcyte hepatocytes over 24 h. It is filed as in vitro ADME. The settings on record: probe phenacetin (5 μmol/L), percentage inhibition, CYP1A2, APAP, 1 mmol/L ABT, Lab 2.

Another data set concerns the target CYP2C9 (Homo sapiens, UniProt P11712). As to the kind of experiment: CYP2C9 inhibition in upcyte hepatocytes over 24 h. It is filed as in vitro ADME. The settings on record: probe tolbutamide (5 μmol/L), percentage inhibition, CYP2C9, OH-Tolb, 1 mmol/L ABT, Lab 2.
Data set [7] deals with T2, CYP2B6 (Homo sapiens, UniProt P20813).
T2 sequence (P20813 1-491): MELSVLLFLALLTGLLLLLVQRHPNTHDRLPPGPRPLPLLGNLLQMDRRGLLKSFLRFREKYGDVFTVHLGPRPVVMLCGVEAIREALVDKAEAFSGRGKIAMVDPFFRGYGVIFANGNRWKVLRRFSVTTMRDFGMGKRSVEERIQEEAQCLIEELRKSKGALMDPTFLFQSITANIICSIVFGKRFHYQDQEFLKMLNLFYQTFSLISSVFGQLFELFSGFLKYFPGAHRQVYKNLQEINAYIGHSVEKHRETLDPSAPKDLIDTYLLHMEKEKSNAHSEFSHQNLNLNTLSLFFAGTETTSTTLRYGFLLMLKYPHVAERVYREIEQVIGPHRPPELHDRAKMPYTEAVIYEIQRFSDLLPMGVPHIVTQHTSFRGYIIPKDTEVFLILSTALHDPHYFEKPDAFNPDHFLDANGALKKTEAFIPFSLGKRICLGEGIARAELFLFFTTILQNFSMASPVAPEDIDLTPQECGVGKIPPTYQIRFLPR
As to the kind of experiment: in vitro. The settings on record: hepatocytes, percentage inhibition, CYP2B6, OH-Bup, 1 mmol/L ABT, Lab 2.

The mark [8] stands for this setting: upcyte Donor 10-03, mean from two experiments.
Where [9] appears, read: upcyte Donor 151-03, mean from two experiments.
Where [10] appears, read: upcyte Donor 653-03, mean from two experiments.

Chain of CYP2C9 (P11712 whole entry): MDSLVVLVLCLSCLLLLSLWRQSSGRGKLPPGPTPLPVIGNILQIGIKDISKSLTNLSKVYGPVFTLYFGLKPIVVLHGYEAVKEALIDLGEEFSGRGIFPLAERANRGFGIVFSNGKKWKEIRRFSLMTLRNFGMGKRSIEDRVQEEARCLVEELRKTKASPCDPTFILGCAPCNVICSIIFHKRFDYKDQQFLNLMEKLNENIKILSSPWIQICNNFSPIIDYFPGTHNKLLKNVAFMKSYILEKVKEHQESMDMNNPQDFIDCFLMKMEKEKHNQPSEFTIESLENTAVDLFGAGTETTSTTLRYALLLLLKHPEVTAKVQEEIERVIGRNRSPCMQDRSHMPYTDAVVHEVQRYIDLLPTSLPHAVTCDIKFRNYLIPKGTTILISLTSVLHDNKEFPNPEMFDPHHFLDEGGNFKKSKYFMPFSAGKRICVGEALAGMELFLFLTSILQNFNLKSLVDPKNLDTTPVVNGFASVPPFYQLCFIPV
Chain of CYP3A4 (Homo sapiens, UniProt P08684) (P08684 whole entry): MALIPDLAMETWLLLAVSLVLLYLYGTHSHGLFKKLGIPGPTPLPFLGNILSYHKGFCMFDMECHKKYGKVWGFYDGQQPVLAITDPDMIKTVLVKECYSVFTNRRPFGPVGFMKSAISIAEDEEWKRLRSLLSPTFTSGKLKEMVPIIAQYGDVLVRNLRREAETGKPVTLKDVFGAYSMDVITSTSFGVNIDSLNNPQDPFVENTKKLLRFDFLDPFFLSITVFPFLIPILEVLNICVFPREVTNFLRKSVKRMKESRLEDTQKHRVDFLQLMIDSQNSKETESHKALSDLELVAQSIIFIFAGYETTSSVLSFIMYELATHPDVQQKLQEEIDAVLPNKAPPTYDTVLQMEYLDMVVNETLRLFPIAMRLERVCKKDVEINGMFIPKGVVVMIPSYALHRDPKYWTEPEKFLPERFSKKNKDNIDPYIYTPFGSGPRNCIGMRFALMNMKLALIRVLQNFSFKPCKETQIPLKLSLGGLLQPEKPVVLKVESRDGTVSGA

Regarding `COc1ccc2[nH]c([S+]([O-])Cc3ncc(C)c(OC)c3C)nc2c1` (centres unmarked) [Omeprazole, omeprazole], the “CYP2B6 Indmax” value is on record as 2.0 fold in the data set with CYP2B6 [1] (upcyte Donor 10-03), “No induction” with CYP2B6 [1] (upcyte Donor 151-03) and 2.2 fold with CYP2B6 [1] (upcyte Donor 653-03). The figures for the “CYP2B6 % PB” value with CYP2B6 [1] (upcyte Donor 10-03), in the data set with CYP2B6 [1] (upcyte Donor 151-03) and with CYP2B6 [1] (upcyte Donor 653-03) were 31%, “No induction” and 56%, respectively. Further, the “induced CYP1A2 activity” value with CYP1A2 [2] (Donor 10-03) is on record as 57.1 ± 17.1 pmol/min/mg protein; in the data set on CYP1A2 [2] (Donor 151-03) it was 83.8 ± 21.7 pmol/min/mg protein; in the data set with CYP1A2 [2] (Donor 422A-03), 205.0 ± 44.9 pmol/min/mg protein. Also, the “% Decrease in midazolam AUC” value in the data set on CYP3A4 [3] was 0%. The “CYP3A4 Indmax” value in the data set on CYP3A4 [4] (setting [8]) is recorded as 2.3 fold; in the data set with CYP3A4 [4] (setting [9]), 3.1 fold; in the data set with CYP3A4 [4] (setting [10]), 1.5 fold. Further, the “CYP3A4 % Rif” value is 4% with CYP3A4 [4] (upcyte Donor 10-03) and 34% in the data set with CYP3A4 [4] (upcyte Donor 151-03). The “CYP3A4 Ind50” value in the data set on CYP3A4 [4] (upcyte Donor 653-03) was 5.
With `NC(=O)N1c2ccccc2C=Cc2ccccc21` [Carbamazepine, carbamazepine], the “CYP2B6 Indmax” value in the data set with CYP2B6 [1] (upcyte Donor 10-03) is 2.0 fold; in the data set with CYP2B6 [1] (upcyte Donor 151-03), 2.3 fold; with CYP2B6 [1] (upcyte Donor 422A-03) it was 4.3 fold; in the data set on CYP2B6 [1] (upcyte Donor 653-03) it was 1.4 fold. The “CYP2B6 % PB” value in the data set with CYP2B6 [1] (upcyte Donor 10-03) is reported as 33%; in the data set with CYP2B6 [1] (upcyte Donor 151-03), 68%; in the data set with CYP2B6 [1] (upcyte Donor 422A-03), 52%; in the data set with CYP2B6 [1] (upcyte Donor 653-03), 17%. Also, the “% Decrease in midazolam AUC” value in the data set on CYP3A4 [3] was 95%. The “CYP3A4 Indmax” value with CYP3A4 [4] (setting [8]) is 4.8 fold; with CYP3A4 [4] (upcyte Donor 10-03, values of two experiments) it was 5.5 fold and 4.1 fold; in the data set with CYP3A4 [4] (setting [9]), 3.8 fold; in the data set on CYP3A4 [4] (upcyte Donor 151-03, values of two experiments) it was 4.2 fold and 3.4 fold; in the data set on CYP3A4 [4] (upcyte Donor 422A-03, mean from two experiments) it was 4.0 fold; with CYP3A4 [4] (upcyte Donor 422A-03, values of two experiments), 4.0 fold and 4.1 fold. Besides, the “CYP3A4 Indmax” value is 5.7 fold in the data set on CYP3A4 [4] (setting [10]); 6.2 fold and 5.2 fold in the data set on CYP3A4 [4] (upcyte Donor 653-03, values of two experiments). Moreover, the “CYP3A4 RIS” value is 2.675 in the data set with CYP3A4 [4] (upcyte Donor 10-03), 3.071 in the data set on CYP3A4 [4] (upcyte Donor 151-03), 1.940 in the data set with CYP3A4 [4] (upcyte Donor 422A-03) and 4.138 with CYP3A4 [4] (upcyte Donor 653-03). Further, the “CYP3A4 % Rif” value was 13% in the data set with CYP3A4 [4] (upcyte Donor 10-03), 45% in the data set with CYP3A4 [4] (upcyte Donor 151-03) and 28% in the data set on CYP3A4 [4] (upcyte Donor 422A-03). Also, in the data set on CYP3A4 [4] (upcyte Donor 653-03), the “CYP3A4 Ind50” value turned out to be 52.
Take `Nn1nnc2ccccc21` [ABT, 1-aminobenzotriazole]: the inhibition (usually the percentage by which the read-out fell short of the control) at 1 mmol/L at CYP3A4 [5] (Donor 151-03, 0–6 h) is 99%; on CYP3A4 [5] (Donor 422A-03, 0–6 h) it was 98%; against CYP3A4 [5] (Donor 653-03, 0–6 h), 98%; on CYP1A2 [6] (Donor 151-03, 0–6 h) it was 100%; on CYP1A2 [6] (Donor 422A-03, 0–6 h), 100%; on CYP1A2 [6] (Donor 653-03, 0–6 h), 95%. Also, the inhibition at 1 mmol/L is 100% at CYP2C9 (Donor 151-03, 0–6 h); 100% against CYP2C9 (Donor 422A-03, 0–6 h); 95% on CYP2C9 (Donor 653-03, 0–6 h); 85% against CYP2B6 [7] (Donor 151-03, 0–6 h); 90% against CYP2B6 [7] (Donor 422A-03, 0–6 h); 94% against CYP2B6 [7] (Donor 653-03, 0–6 h). Further, the inhibition at 24 h, 1 mmol/L came to 97% on CYP3A4 [5] (Donor 151-03, 24 h); 98% at CYP3A4 [5] (Donor 422A-03, 24 h); 98% against CYP3A4 [5] (Donor 653-03, 24 h); 100% on CYP1A2 [6] (Donor 151-03, 24 h); 98% against CYP1A2 [6] (Donor 422A-03, 24 h); 96% on CYP1A2 [6] (Donor 653-03, 24 h). The inhibition at 24 h, 1 mmol/L is 98% on CYP2C9 (Donor 151-03, 24 h); 100% at CYP2C9 (Donor 422A-03, 24 h); 99% at CYP2C9 (Donor 653-03, 24 h); 94% on CYP2B6 [7] (Donor 151-03, 24 h); 94% against CYP2B6 [7] (Donor 422A-03, 24 h); 97% at CYP2B6 [7] (Donor 653-03, 24 h).

The values are drawn from publication PMC4618636 (Pharmacology Research & Perspectives, 2015).
